The assay relates to rice seed. Briefly: Salt tolerance assay: germination of rice seed under high salt environment. Format: in vivo. An excerpt: According to a salt tolerance assay, we measured germination of rice seed under high salt environment to determine effects of the natural brassinolide analogues on the salt tolerance of a plant.
The natural brassinolide analogues, BR1, BR2, BR3, BR4, BR5 and BR6, used herein, were those prepared by the method of Example 1. And BR1, BR2, BR3, BR4, BR5 and BR6 were mixed into a mixture of brassinolide analogues (referred to as “BRs”, in which the weight ratio of BR1:BR2:BR3:BR4:BR5:BR6 is 0.4:0.4:0.4:0.4:0.4:98). Respectively the analogues and the mixture were dissolved into 95% (V/V) ethanol solution, and then diluted with pure water to 1 mg/L, 0.1 mg/L, 0.01 mg/L, 0.001 mg/L and 0.0001 mg/L. In addition, pure water was used as a control. Furthermore, NaCl was added to the above solutions containing different concentrations of the natural brassinolide analogues or pure water respectively, and the concentrations of the salt are 300, 400, 500 and 600 mg/L respectively.
After rice seeds were disinfected by using 5% sodium hypochlorite solution treatment, they were rinsed with distilled water until their pH>7, placed into a petri dish in a dark incubator, and cultured at 30° C.±2° C. by using the above solutions containing different concentrations of the natural brassinolide analogues or pure water for observing the germination and calculating germination rates. The results are shown in tables 4-0˜4-4, which indicate that relative to the control, each of the natural brassinolide analogues and the mixture were capable of increasing germination rates of rice under high salt environment so as to enhance the salt tolerance of a plant; and substantially the enhancement of the germination rates was positively correlated to the concentrations of the natural brassinolide analogues and the mixture.

[1] abbreviates: rice seed, sample 0.0001 mg/l, salt (NaCl) 300 mg/l.
Setting [2] is: rice seed, sample 0.0001 mg/l, salt (NaCl) 400 mg/l.
[3] abbreviates: rice seed, sample 0.0001 mg/l, salt (NaCl) 500 mg/l.
[4] abbreviates: rice seed, sample 0.0001 mg/l, salt (NaCl) 600 mg/l.
[5] abbreviates: rice seed, sample 0.001 mg/l, salt (NaCl) 300 mg/l.
The mark [6] stands for this setting: rice seed, sample 0.001 mg/l, salt (NaCl) 400 mg/l.
[7] abbreviates: rice seed, sample 0.001 mg/l, salt (NaCl) 500 mg/l.
[8] abbreviates: rice seed, sample 0.001 mg/l, salt (NaCl) 600 mg/l.
[9] abbreviates: rice seed, sample 0.01 mg/l, salt (NaCl) 300 mg/l.
[10] abbreviates: rice seed, sample 0.01 mg/l, salt (NaCl) 400 mg/l.
The mark [11] stands for this setting: rice seed, sample 0.01 mg/l, salt (NaCl) 500 mg/l.
The mark [12] stands for this setting: rice seed, sample 0.01 mg/l, salt (NaCl) 600 mg/l.
Setting [13] is: rice seed, sample 0.1 mg/l, salt (NaCl) 300 mg/l.
Setting [14] is: rice seed, sample 0.1 mg/l, salt (NaCl) 400 mg/l.
The mark [15] stands for this setting: rice seed, sample 0.1 mg/l, salt (NaCl) 500 mg/l.
The mark [16] stands for this setting: rice seed, sample 0.1 mg/l, salt (NaCl) 600 mg/l.
The mark [17] stands for this setting: rice seed, sample 1 mg/l, salt (NaCl) 300 mg/l.
Where [18] appears, read: rice seed, sample 1 mg/l, salt (NaCl) 400 mg/l.
Where [19] appears, read: rice seed, sample 1 mg/l, salt (NaCl) 500 mg/l.
Setting [20] is: rice seed, sample 1 mg/l, salt (NaCl) 600 mg/l.
The mark [21] stands for this setting: sample 0.0001 mg/l, salt 300 mg/l.
Where [22] appears, read: sample 0.0001 mg/l, salt 400 mg/l.
[23] abbreviates: sample 0.0001 mg/l, salt 500 mg/l.
Setting [24] is: sample 0.0001 mg/l, salt 600 mg/l.
Setting [25] is: sample 0.001 mg/l, salt 300 mg/l.
Where [26] appears, read: sample 0.001 mg/l, salt 400 mg/l.
[27] abbreviates: sample 0.001 mg/l, salt 500 mg/l.
[28] abbreviates: sample 0.001 mg/l, salt 600 mg/l.
Where [29] appears, read: sample 0.01 mg/l, salt 300 mg/l.
[30] abbreviates: sample 0.01 mg/l, salt 400 mg/l.
Where [31] appears, read: sample 0.01 mg/l, salt 500 mg/l.
Where [32] appears, read: sample 0.01 mg/l, salt 600 mg/l.

As to `CC(C)(O)CC[C@@H](O)[C@](C)(O)[C@H]1CC[C@@]2(O)[C@@H]3CC(=O)[C@@H]4C[C@@H](O)[C@@H](O)C[C@]4(C)[C@H]3CC[C@]12C` [BR6], the Germination rate is, setting by setting: under setting [1], 52%; under setting [2], 48%; under setting [3], 42%; under setting [4], 36%; under setting [5], 53%; under setting [6], 50%. Further, the Germination rate under setting [7] is on record as 44%; the Germination rate under setting [8] came out at 37%; the Germination rate under setting [9] is 55%; the Germination rate under setting [10] was 51%; the Germination rate under setting [11] amounted to 46%; the Germination rate under setting [12] is listed as 39%. Further, the Germination rate by setting is: under setting [13], 58%; under setting [14], 53%; under setting [15], 47%; under setting [16], 42%; under setting [17], 68%; under setting [18], 55%. For the same molecule, the Germination rate runs as follows: under setting [19], 52%; under setting [20], 44%.
In the case of `C=C(C(C)C)[C@@H](O)[C@H](O)[C@@H](C)[C@H]1CCC2C3COC(=O)C4C[C@H](O)[C@H](O)C[C@]4(C)C3CC[C@@]21C` (stereo partly drawn) [BR3], the Germination rate reads like this: under setting [21], 50%; under setting [22], 45%; under setting [23], 39%; under setting [24], 32%; under setting [25], 50%; under setting [26], 43%. The Germination rate by setting is: under setting [27], 40%; under setting [28], 33%; under setting [29], 51%; under setting [30], 50%; under setting [31], 47%; under setting [32], 39%. Also, the Germination rate was 50% (sample 0.1 mg/l, salt 300 mg/l); 50% (sample 0.1 mg/l, salt 400 mg/l); 41% (sample 0.1 mg/l, salt 500 mg/l); 38% (sample 0.1 mg/l, salt 600 mg/l); 52% (sample 1 mg/l, salt 300 mg/l); 46% (sample 1 mg/l, salt 400 mg/l). Besides, the Germination rate runs as follows: (sample 1 mg/l, salt 500 mg/l) 40%; (sample 1 mg/l, salt 600 mg/l) 38%.
Turning to `CC(C)C[C@@H](O)[C@H](O)[C@@H](C)[C@H]1CCC2C3CC(=O)C4C[C@H](O)[C@H](O)C[C@]4(C)C3CC[C@@]21C` (stereo partly drawn) [BR5], the Germination rate is, setting by setting: under setting [1], 50%; under setting [2], 48%; under setting [3], 42%; under setting [4], 36%; under setting [5], 52%; under setting [6], 49%. In addition, the Germination rate is 45% under setting [7]; 38% under setting [8]; 56% under setting [9]; 51% under setting [10]; 47% under setting [11]; 39% under setting [12]. Also, the Germination rate is reported as 58% under setting [13]; 52% under setting [14]; 43% under setting [15]; 40% under setting [16]; 62% under setting [17]; 55% under setting [18]. The Germination rate runs as follows: under setting [19], 50%; under setting [20], 42%.
Consider `CC(C)[C@H](C)[C@@H](O)[C@H](O)[C@@H](C)[C@H]1CCC2C3CC(=O)C4C[C@H](O)CC[C@]4(C)C3CC[C@@]21C` (stereo partly drawn) [BR4], for which the Germination rate by setting is: under setting [21], 50%; under setting [22], 47%; under setting [23], 42%; under setting [24], 36%; under setting [25], 51%; under setting [26], 49%. In addition, the Germination rate under setting [27] amounted to 43%; the Germination rate under setting [28] is listed as 37%; the Germination rate under setting [29] is on record as 55%; the Germination rate under setting [30] came out at 52%; the Germination rate under setting [31] came out at 47%; the Germination rate under setting [32] is 39%. In addition, the Germination rate by setting is: (sample 0.1 mg/l, salt 300 mg/l) 58%; (sample 0.1 mg/l, salt 400 mg/l) 50%; (sample 0.1 mg/l, salt 500 mg/l) 49%; (sample 0.1 mg/l, salt 600 mg/l) 40%; (sample 1 mg/l, salt 300 mg/l) 60%; (sample 1 mg/l, salt 400 mg/l) 55%. Also, the Germination rate runs as follows: (sample 1 mg/l, salt 500 mg/l) 50%; (sample 1 mg/l, salt 600 mg/l) 41%.
Regarding `CC[C@@H](C(C)C)[C@@H](O)[C@H](O)[C@@H](C)[C@H]1CCC2C3COC(=O)C4C[C@H](O)[C@H](O)C[C@]4(C)C3CC[C@@]21C` (stereo partly drawn) [BR2], the Germination rate reads like this: under setting [21], 45%; under setting [22], 41%; under setting [23], 39%; under setting [24], 36%; under setting [25], 50%; under setting [26], 42%. Also, the Germination rate under setting [27] is 40%; the Germination rate under setting [28] was determined as 36%; the Germination rate under setting [29] was 50%; the Germination rate under setting [30] is listed as 51%; the Germination rate under setting [31] was 47%; the Germination rate under setting [32] is on record as 39%. In addition, the Germination rate was found to be 50% (sample 0.1 mg/l, salt 300 mg/l); 50% (sample 0.1 mg/l, salt 400 mg/l); 46% (sample 0.1 mg/l, salt 500 mg/l); 38% (sample 0.1 mg/l, salt 600 mg/l); 58% (sample 1 mg/l, salt 300 mg/l); 51% (sample 1 mg/l, salt 400 mg/l). Also, the Germination rate is reported as 46% (sample 1 mg/l, salt 500 mg/l) and 38% (sample 1 mg/l, salt 600 mg/l).
As to `CC(C)[C@H](C)[C@@H](O)[C@H](O)[C@@H](C)[C@H]1CCC2C3COC(=O)C4C[C@H](O)[C@H](O)C[C@]4(C)C3CC[C@@]21C` (stereo partly drawn) [BR1], the Germination rate under setting [21] is reported as 51%; the Germination rate under setting [22] is 48%; the Germination rate under setting [23] was determined as 42%; the Germination rate under setting [24] is on record as 36%; the Germination rate under setting [25] was found to be 53%; the Germination rate under setting [26] was determined as 49%. Moreover, the Germination rate under setting [27] is 45%; the Germination rate under setting [28] was 37%; the Germination rate under setting [29] turned out to be 55%; the Germination rate under setting [30] was 52%; the Germination rate under setting [31] is listed as 47%; the Germination rate under setting [32] stood at 39%. Besides, the Germination rate is 58% (sample 0.1 mg/l, salt 300 mg/l); 52% (sample 0.1 mg/l, salt 400 mg/l); 49% (sample 0.1 mg/l, salt 500 mg/l); 40% (sample 0.1 mg/l, salt 600 mg/l); 62% (sample 1 mg/l, salt 300 mg/l); 55% (sample 1 mg/l, salt 400 mg/l). Moreover, the Germination rate is, setting by setting: (sample 1 mg/l, salt 500 mg/l) 50%; (sample 1 mg/l, salt 600 mg/l) 42%.

For the origin of these results see patent publication US9326506B2, “Preparation method, agricultural composition and applications of natural brassinolide analogs” (CHENGDU NEWSUN CROPSCIENCE CO., LTD, priority 2012, dated 2016).
